Read-outs that look alike come from different tables or passages of the source.
Tests used:
Format in all cases: biochemical
LCK = LCK (Homo sapiens, UniProt P06239); experiment: Inhibition of a panel of kinases, in vitro HotSpot kinase assay: LCK; conditions: Table 10, Formula A-I; 1 μM ATP; read-out: LCK (IC50)
BTK-WT = molecular target: T1, BTK-WT (Homo sapiens, UniProt Q06187); experiment: Btk in vitro inhibitory activity (one of Method A TR-FRET, Method B electrophoretic mobility shift, Method C radiometric filter binding); conditions: read-out: BTK-WT (IC50)
T1 construct: purified from insect cells as a full-length construct containing an N-terminal 6X-His tag; His6 (N); made in house; host or cells: insect cells (baculovirus Sf21 in Method B)

JAK3 = molecular target: T2, JAK3 (Homo sapiens, UniProt P52333); experiment: Inhibition of a panel of kinases, in vitro HotSpot kinase assay: JAK3; conditions: 1 μM ATP, read-out: JAK3 (IC50)
T2 sequence (P52333 1-1124): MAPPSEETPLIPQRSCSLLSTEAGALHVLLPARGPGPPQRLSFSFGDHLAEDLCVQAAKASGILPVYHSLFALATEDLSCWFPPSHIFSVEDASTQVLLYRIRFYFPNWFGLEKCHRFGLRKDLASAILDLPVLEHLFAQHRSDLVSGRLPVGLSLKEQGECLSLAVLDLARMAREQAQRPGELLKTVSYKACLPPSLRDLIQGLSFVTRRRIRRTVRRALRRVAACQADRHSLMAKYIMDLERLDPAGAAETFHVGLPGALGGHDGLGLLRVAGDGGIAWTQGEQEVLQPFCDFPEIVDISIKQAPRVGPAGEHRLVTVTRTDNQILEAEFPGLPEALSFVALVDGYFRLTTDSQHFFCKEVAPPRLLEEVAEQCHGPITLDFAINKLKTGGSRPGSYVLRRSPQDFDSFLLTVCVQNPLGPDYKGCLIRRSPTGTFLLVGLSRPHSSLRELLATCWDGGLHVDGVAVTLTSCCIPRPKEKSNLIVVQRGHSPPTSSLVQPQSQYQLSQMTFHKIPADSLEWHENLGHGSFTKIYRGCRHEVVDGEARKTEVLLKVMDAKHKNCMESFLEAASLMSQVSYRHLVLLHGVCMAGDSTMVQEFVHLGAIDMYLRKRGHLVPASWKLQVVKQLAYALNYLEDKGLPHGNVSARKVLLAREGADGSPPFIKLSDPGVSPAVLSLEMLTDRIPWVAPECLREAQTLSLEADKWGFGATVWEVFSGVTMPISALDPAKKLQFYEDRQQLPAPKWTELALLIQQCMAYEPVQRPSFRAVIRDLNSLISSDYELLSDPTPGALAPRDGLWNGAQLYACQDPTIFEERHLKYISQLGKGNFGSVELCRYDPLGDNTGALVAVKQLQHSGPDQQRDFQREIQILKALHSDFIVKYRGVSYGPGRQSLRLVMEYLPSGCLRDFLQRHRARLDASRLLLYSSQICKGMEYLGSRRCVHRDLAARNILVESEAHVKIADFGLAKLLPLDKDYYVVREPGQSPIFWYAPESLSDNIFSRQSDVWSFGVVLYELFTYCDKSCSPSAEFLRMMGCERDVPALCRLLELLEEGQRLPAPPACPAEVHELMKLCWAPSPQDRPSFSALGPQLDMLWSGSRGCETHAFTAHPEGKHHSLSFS

T1 sequence (Q06187 whole entry): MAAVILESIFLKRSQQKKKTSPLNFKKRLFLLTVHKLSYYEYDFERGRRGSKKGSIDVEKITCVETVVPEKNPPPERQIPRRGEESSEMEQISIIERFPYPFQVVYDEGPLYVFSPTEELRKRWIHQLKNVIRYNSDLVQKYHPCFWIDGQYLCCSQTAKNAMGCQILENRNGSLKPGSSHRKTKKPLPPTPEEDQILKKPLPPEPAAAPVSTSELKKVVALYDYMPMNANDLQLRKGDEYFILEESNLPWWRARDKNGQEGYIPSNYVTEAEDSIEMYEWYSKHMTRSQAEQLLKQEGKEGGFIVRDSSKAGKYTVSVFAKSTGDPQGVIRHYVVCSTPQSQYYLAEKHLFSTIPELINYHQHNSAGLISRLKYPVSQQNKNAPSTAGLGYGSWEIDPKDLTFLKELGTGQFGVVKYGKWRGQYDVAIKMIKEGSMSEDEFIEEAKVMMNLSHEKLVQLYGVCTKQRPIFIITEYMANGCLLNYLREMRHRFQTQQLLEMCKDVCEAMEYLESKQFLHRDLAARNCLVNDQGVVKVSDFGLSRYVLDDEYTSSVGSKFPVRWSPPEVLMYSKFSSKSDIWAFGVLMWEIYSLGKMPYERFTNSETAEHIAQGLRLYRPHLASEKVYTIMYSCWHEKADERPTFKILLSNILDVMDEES
Chain of LCK (P06239 whole entry): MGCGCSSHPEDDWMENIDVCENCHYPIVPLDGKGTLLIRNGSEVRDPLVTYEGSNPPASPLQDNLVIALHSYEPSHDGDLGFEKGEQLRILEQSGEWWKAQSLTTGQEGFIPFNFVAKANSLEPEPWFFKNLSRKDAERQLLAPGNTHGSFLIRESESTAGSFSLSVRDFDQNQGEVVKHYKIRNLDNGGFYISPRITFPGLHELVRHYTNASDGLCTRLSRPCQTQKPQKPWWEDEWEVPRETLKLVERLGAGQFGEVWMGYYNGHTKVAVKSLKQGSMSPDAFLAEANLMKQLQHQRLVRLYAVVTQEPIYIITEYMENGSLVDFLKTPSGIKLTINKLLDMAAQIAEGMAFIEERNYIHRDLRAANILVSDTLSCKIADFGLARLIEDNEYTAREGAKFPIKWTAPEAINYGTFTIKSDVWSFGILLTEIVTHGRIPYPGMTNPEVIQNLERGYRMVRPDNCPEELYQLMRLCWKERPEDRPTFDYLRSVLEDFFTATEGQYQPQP

Row | SMILES | IC50 (BTK-WT; Table 10, Formula A-I) [nM] | IC50 (JAK3; Table 10, Formula A-I) [nM] | also measured
1 | Cc1cc(Nc2cc(N3CCC[C@@H](NC(=O)c4ccc(C(C)C)cc4)C3)cnc2C(N)=O)sn1 [Example A-63, 3-[(3-methyl-1,2-thiazol-5-yl)amino]-5-[(3R)-3-[4-(propan-2-yl)benzamido]piperidin-1-yl]pyridine-2-carboxamide] | ≤ 100 | > 10000 | 
2 | Cc1cc(Nc2c(C(N)=O)ncc(N3CCC[C@@H](NC(=O)c4ccc(N(C)C)cc4)C3)c2C)sn1 [Example A-66, 5-[(3R)-3-[4-(dimethylamino)benzamido]piperidin-1-yl]-4-methyl-3-[(3-methyl-1,2-thiazol-5-yl)amino]pyridine-2-carboxamide] | 1000 to 10000 | > 10000 | 
3 | Cc1cc(Nc2nc(N3CCC[C@@H](NC(=O)c4ccc(N(C)C)cc4)[C@@H]3CO)cnc2C(N)=O)sn1 [Example A-69, 5-[(2R,3R)-3-[4-(dimethylamino)benzamido]-2-(hydroxymethyl)piperidin-1-yl]-3-[(3-methyl-1,2-thiazol-5-yl)amino]pyrazine-2-carboxamide] | 100 to 1000 | > 10000 | 
4 | Cc1cc(Nc2nc(N3CCC[C@H](NC(=O)c4ccc(N(C)C)cc4)[C@H]3CO)cnc2C(N)=O)sn1 [Example A-70, 5-[(2S,3S)-3-[4-(dimethylamino)benzamido]-2-(hydroxymethyl)piperidin-1-yl]-3-[(3-methyl-1,2-thiazol-5-yl)amino]pyrazine-2-carboxamide] | 100 to 1000 | > 10000 | 
5 | Cc1cc(Nc2nc(N3CCC[C@@H](NC(=O)c4ccc(C5CC5)cc4F)[C@H]3C)cnc2C(N)=O)sn1 [Example A-74, 5-[(2R,3R)-3-(4-cyclopropyl-2-fluorobenzamido)-2-methylpiperidin-1-yl]-3-[(3-methyl-1,2-thiazol-5-yl)amino]pyrazine-2-carboxamide] | ≤ 100 | 1000 to 10000 | 
6 | Cc1cc(Nc2nc(N3CCCC(CNC(=O)N(C)C)C3)cnc2C(N)=O)sn1 (stereo not drawn) [Example A-78, 5-(3-{[(dimethylcarbamoyl)amino]methyl}piperidin-1-yl)-3-[(3-methyl-1,2-thiazol-5-yl)amino]pyrazine-2-carboxamide] | ≤ 100 | 1000 to 10000 | 
7 | Cc1cc(Nc2nc(N3CCCC(CNC(=O)c4ccccc4)C3)cnc2C(N)=O)sn1 (stereo not drawn) [Example A-79, 3-[(3-methyl-1,2-thiazol-5-yl)amino]-5-{3-[(phenylformamido)methyl]piperidin-1-yl}pyrazine-2-carboxamide] | ≤ 100 | 1000 to 10000 | 
8 | Cc1cc(Nc2nc(N3CCCC(CNC(=O)c4ccc(N(C)C)cc4)C3)cnc2C(N)=O)sn1 (stereo not drawn) [Example A-80] | ≤ 100 | 1000 to 10000 | 
9 | CN(C)c1ccc(C(=O)N[C@H]2CC[C@H](Nc3cnc(C(N)=O)c(Nc4ccc5ncccc5c4)n3)CC2)cc1 [Example B-2] |  |  | IC50 (BTK-WT; Table 11, Formula B-I): 100 to 1000 nM; IC50 (JAK3; Table 11, Formula B-I): > 10000 nM
10 | Cc1cc(Nc2nc(NC3CCC(NC(=O)N(C)C)CC3)cnc2C(N)=O)sn1 (stereo not drawn) [Example B-3, 5-({4-[(dimethylcarbamoyl)amino]cyclohexyl}amino)-3-[(3-methyl-1,2-thiazol-5-yl)amino]pyrazine-2-carboxamide] |  |  | IC50 (BTK-WT; Table 11, Formula B-I): ≤ 100 nM; IC50 (JAK3; Table 11, Formula B-I): < 100 nM
11 | Cc1cc(Nc2nc(NC3CCC(NC(=O)c4ccccc4)CC3)cnc2C(N)=O)sn1 (stereo not drawn) [Example B-4, 5-[(4-benzamidocyclohexyl)amino]-3-[(3-methyl-1,2-thiazol-5-yl)amino]pyrazine-2-carboxamide] |  |  | IC50 (BTK-WT; Table 11, Formula B-I): ≤ 100 nM; IC50 (JAK3; Table 11, Formula B-I): < 100 nM
12 | Cc1cc(Nc2nc(N(C)[C@H]3CCCN(C(=O)c4ccc(N(C)C)cc4)C3)cnc2C(N)=O)sn1 [Example C-9, 5-{[(3S)-1-[4-(dimethylamino)benzoyl]piperidin-3-yl](methyl)amino}-3-[(3-methyl-1,2-thiazol-5-yl)amino]pyrazine-2-carboxamide] |  |  | IC50 (BTK-WT; Table 12, Formula C-I): 1000 to 10000 nM; IC50 (JAK3; Table 12, Formula C-I): > 10000 nM

Continued, in another order:

Row | IC50 (BTK-WT; Table 10, Formula A-I) [nM] | IC50 (JAK3; Table 10, Formula A-I) [nM] | SMILES | also measured
13 | ≤ 100 |  | NC(=O)c1ncc(N2CCC[C@@H](NC(=O)Nc3cccnc3)C2)nc1Nc1ccc(C2CCN(C3CCCC3)CC2)cc1 [Example A-1, 3-{[4-(1-cyclopentylpiperidin-4-yl)phenyl]amino)-5-[(3R)-3-([(pyridin-3-yl)carbamoyl]amino}piperidin-1-yl]pyrazine-2-carboxamide] | IC50 (LCK): < 100 nM
14 | ≤ 100 |  | NC(=O)c1ncc(N2CCC[C@@H](NC(=O)NC3CCCCC3)C2)nc1Nc1ccc(C2CCN(C3CCCC3)CC2)cc1 [Example A-3, 5-[(3R)-3-[(cyclohexylcarbamoyl)amino]piperidin-1-yl]-3-{[4-(1-cyclopentylpiperidin-4-yl)phenyl]amino}pyrazine-2-carboxamide] | IC50 (LCK): 100 to 1000 nM
15 | ≤ 100 |  | Cc1cc(Nc2nc(N3CCC[C@@H](NC(=O)Nc4ccccc4)C3)cnc2C(N)=O)sn1 [Example A-9] | IC50 (LCK): < 100 nM
16 | ≤ 100 |  | Cc1cc(Nc2nc(N3CCC[C@@H](NC(=O)Nc4ccc(F)cc4)C3)cnc2C(N)=O)sn1 [Example A-14] | IC50 (LCK): 100 to 1000 nM
17 | ≤ 100 |  | COc1ccc(NC(=O)N[C@@H]2CCCN(c3cnc(C(N)=O)c(Nc4cc(C)ns4)n3)C2)cc1 [Example A-15, 5-[(3R)-3-{[(4-methoxyphenyl)carbamoyl]amino}piperidin-1-yl]-3-[(3-methyl-1,2-thiazol-5-yl)amino]pyrazine-2-carboxamide] | IC50 (LCK): 100 to 1000 nM
18 | ≤ 100 |  | COc1cccc(NC(=O)N[C@@H]2CCCN(c3cnc(C(N)=O)c(Nc4cc(C)ns4)n3)C2)c1 [Example A-16, 5-[(3R)-3-{[(3-methoxyphenyl)carbamoyl]amino}piperidin-1-yl]-3-[(3-methyl-1,2-thiazol-5-yl)amino]pyrazine-2-carboxamide] | IC50 (LCK): 100 to 1000 nM
19 | 1000 to 10000 | > 10000 | CC(C)c1ccc(C(=O)N[C@@H]2CCCN(c3cnc(C(N)=O)c(Nc4ccccc4)n3)C2)cc1 [Example A-65, 3-(phenylamino)-5-[(3R)-3-[4-(propan-2-yl)benzamido]piperidin-1-yl]pyrazine-2-carboxamide] | 
20 | 1000 to 10000 | 1000 to 10000 | CC(C)c1ccc(C(=O)N[C@@H]2CCCN(c3cnc(C(N)=O)c(Nc4ccccn4)n3)C2)cc1 [Example A-71, 5-[(3R)-3-[4-(propan-2-yl)benzamido]piperidin-1-yl]-3-[(pyridin-2-yl)amino]pyrazine-2-carboxamide] | 
21 | ≤ 100 | 1000 to 10000 | CCN1N=CC2C=C(C(=O)N[C@@H]3CCCN(c4cnc(C(N)=O)c(Nc5cc(C)ns5)n4)C3)C=CC21 (stereo partly drawn) [Example A-72, N-[(3R)-1-{5-carbamoyl-6-[(3-methyl-1,2-thiazol-5-yl)amino]pyrazin-2-yl}piperidin-3-yl]-1-ethyl-3a,7a-dihydro-1H-indazole-5-carboxamide] | 
22 | ≤ 100 | 1000 to 10000 | Cc1cc(Nc2nc(N3CCC[C@@H](NC(=O)c4ccc(C5CC5)c(F)c4)C3)cnc2C(N)=O)sn1 [Example A-73, 5-[(3R)-3-(4-cyclopropyl-3-fluorobenzamido)piperidin-1-yl]-3-[(3-methyl-1,2-thiazol-5-yl)amino]pyrazine-2-carboxamide] | 
23 | ≤ 100 | 1000 to 10000 | C[C@@H]1[C@H](NC(=O)c2ccc(C3CC3)cc2F)CCCN1c1cnc(C(N)=O)c(Nc2ccc(N3CCN(C)CC3)cc2)n1 [Example A-81, 5-[(2R,3R)-3-(4-cyclopropyl-2-fluorobenzamido)-2-methylpiperidin-1-yl]-3-{[4-(4-methylpiperazin-1-yl)phenyl]amino}pyrazine-2-carboxamide] | 
24 | ≤ 100 | 1000 to 10000 | CC(C)c1ccc(C(=O)N[C@@H]2CCCN(c3cnc(C(N)=O)c(Nc4ccc(CN(C)C)cc4)n3)C2)cc1 [Example A-83, 3-({4-[(dimethylamino)methyl]phenyl}amino)-5-[(3R)-3-[4-(propan-2-yl)benzamido]piperidin-1-yl]pyrazine-2-carboxamide] | 

Source: patent US20210070748A1, “INHIBITORS OF BRUTONS TYROSINE KINASE” (Pharmacyclics LLC, priority 2015, published 2021)
